The structures appear in SMILES notation. Marks after values point to notes of the source that are not given here.

For orientation: viability means a per cent measure of how many cells are alive, often set against a control.

Series [1] has as its system glochidia of L. siliquoidea. The arrangement: method as in Gilroy et al. ([2017]). Particulars: ref Gilroy et al. ([2017]); cited from earlier work.
Another series has as its system juvenile L. siliquoidea. The arrangement: method as in Gilroy et al. ([2017]). Particulars: ref Gilroy et al. ([2017]); cited from earlier work.
Series [2] concerns D. magna. Particulars: ref Minguez et al. ([2014]); cited from earlier work.
The nature of series [3]: Acute 48 h aqueous toxicity test with glochidia (viability). Format: in vivo, Lampsilis siliquoidea. As to conditions: Lampsilis siliquoidea, in vivo, other: aqueous (water-only) exposure, 48-h aqueous exposure, n = 4, read-out: Viability (mean, % (standard deviation)). From the text:
(§1) Aqueous acute toxicity tests were based on the American Society for Testing and Materials (ASTM [2013]) protocols for conducting toxicity tests with early life stages of freshwater mussels. Gravid female L. siliquoidea were collected from an established reference site in the Maitland River (ON) and kept in ECCC’s Aquatic Life Research Facility (Canada Centre for Inland Waters, Burlington, ON). Glochidia were removed from gravid females and their viability (i.e., ability to close their valves) was assessed. Glochidia from a minimum of three gravid mussels whose glochidia exceeded 90% viability were pooled and exposed to a geometric series of nominal concentrations (0, 0.0025, 0.025, 0.25, 2.5, 25 mg/L) of either FIN or MGA plus a solvent control. Tests were conducted in 250-mL glass beakers (unaerated and unfed) with culture water. After 24 and 48 h of exposure, glochidia viability was assessed in a minimum of 100 glochidia per replicate (four replicates). Water samples were collected at the beginning and end of the tests, and frozen pending chemical analysis.

Series [4] relates to Lampsilis siliquoidea glochidia. The description is as above. Type of series: in vivo. Particulars: for Viability (mean, % (standard deviation)): 48-h aqueous exposure, n = 4.
Text: as §1

In the next series the test system is amphipod Hyalella azteca. The series can be described thus: Chronic 42-day sediment test with amphipods (survival, growth, reproduction, sex ratio). The protocol: Dechlorinated municipal tap water was used for cultures and toxicity tests. Both cultures and toxicity tests were held at 25 °C with a photoperiod of 16 h light:8 h dark, and amphipods were fed finely ground Tetra-Min fish food flakes (Tetra GMBH, Melle, Germany). Juvenile amphipods were removed weekly from breeding containers and used in toxicity tests.
Two tests were conducted for each compound. Amphipods were fed ground Tetra-Min twice per week during weeks 1 and 2, three times during week 3, and 5 mg three times per week during weeks 4 to 6. Surviving adults were counted, weighed as a group, and examined under a dissecting microscope to identify males (enlarged second gnathopods) and females, and the number of juveniles was recorded.

Series [5] concerns juvenile mussels L. siliquoidea. The series can be described thus: 21 d range-finding sediment test, juvenile mussels. Type of series: in vivo. The protocol:
(§2) Range-finding tests of 21 d were completed with juvenile mussels, amphipods and mayflies to assist with the selection of the concentrations to be used in final testing. Nominal concentrations in range-finding tests were 0.1, 1, 10, 100, and 1000 mg/kg, based on dry weight of sediment. Range-finding test conditions were identical to those described in the manuscript for chronic sediment tests with the exception of test duration.
After 21 d, mussels were recovered and transferred to Petri dishes filled with clean sand and housed in large trays of aerated culture water to assess burial ability.

The next series concerns amphipods H. azteca. The series can be described thus: 21 d range-finding sediment test, amphipods. Particulars: n = 3. Format: in vivo, Hyalella azteca. Here is the method:
as §2
Amphipods were fed 2.5 mg Tetra-min twice per week during weeks one and two, and three times during week three. At the end of the test, amphipods were removed and the survivors were counted and weighed.

The next series concerns mayflies Hexagenia spp. The series can be described thus: 21 d range-finding sediment test, mayflies. Format: in vivo. Particulars: n = 3. The protocol:
as §2
At the end of the test, survival and wet weight of mayflies in each replicate were recorded.

Series [6] concerns mayfly Hexagenia spp. As to conditions: Hexagenia spp. (mixture of H. rigida and H. limbata), in vivo, 42 days, pH 8.3.
Experimental: (§3) Nominal concentrations were 10, 30, 100, 300, and 1000 mg/kg for juvenile freshwater mussels and 3, 10, 30, 100, and 300 mg/kg for amphipods and mayflies, and were based on the results of range-finding tests (detailed in Supplementary Materials). […] For each PPCP, the concentration of solvent used was consistent across treatments.
(§4) The sediments were mixed for 24 h, left open in a fume hood for 3–5 days for the acetone to evaporate, and then stored at 4 °C until use. […] All beakers were aerated for 1 week under testing conditions prior to the addition of organisms, and throughout the tests. Duration of toxicity tests varied depending on the species and endpoint of interest (see below). Water quality parameters were collected for each test (Table S1).
(§5) Briefly, eggs of Hexagenia spp. […] Prior to testing, eggs were hatched and nymphs were grown in aerated 20-L aquaria containing culture sediment (depth: 2.5 cm) and culture water (depth: 10 cm) for 6 to 7 weeks.
(§6) Ten mayflies (5–8 mg wet weight) were added to each beaker (three replicates for each control and PPCP concentration). Two tests were conducted for each compound. […] At the end of the test, mayflies were removed and surviving animals from each of the three replicates were counted and weighed.
Series [7] deals with goldfish (Carassius auratus). The arrangement: method as in Upjohn Company [1996]. As to conditions: 1 mg/L MGA for 21 days; ref Upjohn Company [1996]; cited from earlier work.
The test system of series [8] is African clawed frog (Xenopus laevis) larvae. The arrangement: method as in Finch et al. [2013]. As to conditions: chronic exposure to 100 ng/L MGA; ref Finch et al. [2013]; cited from earlier work.
For series [9] the following is noted: natural and simulated sunlight; ref Qu et al. [2012]; cited from earlier work.
Series [10] relates to mayfly Hexagenia spp. The series can be described thus: Chronic 42-day sediment test with mayflies (survival, growth). Particulars: measured, n = 6.
Experimental: as §3, §4, §5, §6
Series [11] deals with D. magna. The arrangement: method as in Haeba et al. [2008]. As to conditions: ref Haeba et al. [2008], cited from earlier work.
[12] abbreviates: Hyalella azteca, in vivo, 42 days, pH 8.3.
[13] abbreviates: 0.1 mg/kg dry weight nominal, n = 3.
Where [14] appears, read: 1 mg/kg dry weight nominal, n = 3.
The mark [15] stands for this setting: 10 mg/kg dry weight nominal, n = 3.
[16] abbreviates: 100 mg/kg dry weight nominal, n = 3.

For `CN(C)CCC=C1c2ccccc2CCc2ccccc21` [amitriptyline], the “24-h LC50” value in [1] is 0.3 µg/mL. In the series with juvenile L. siliquoidea, the “14-day LC50” value was 0.4 µg/mL. The “48-h EC50” value in the series with D. magna [2] was 4.8 µg/mL.
Regarding `CN[C@H]1CC[C@@H](c2ccc(Cl)c(Cl)c2)c2ccccc21` [sertraline], in series [1], the “24-h LC50” value is 0.06 µg/mL. For the same molecule, the “28-day LC50” value with juvenile L. siliquoidea was 0.04 µg/mL.
For the molecule `C=C1C[C@H]2[C@@H]3C=C(C)C4=CC(=O)CC[C@]4(C)[C@H]3CC[C@]2(C)[C@@]1(OC(C)=O)C(C)=O` [Melengestrol acetate], the viability at 48 h, 0.005 mg/L in series [3] (0.005 mg/L mean measured) worked out at 86%. The viability at 48 h, 0.05 mg/L in series [3] (0.05 mg/L mean measured) was 82%. The viability at 48 h, 0.3 mg/L in series [3] (0.3 mg/L mean measured) was 85%. Also, in series [3] (1.9 mg/L mean measured), the viability at 48 h, 1.9 mg/L is 82%. The viability at 48 h, 4 mg/L in series [3] (4 mg/L mean measured) was found to be 70%. Besides, the Decrease in viability in [4] (4 mg/L MGA, water-only) stood at 20%. Also, the “Viability (mean, % (standard deviation))” value in series [4] (0.05 mg/L mean measured) is 82 (2.1)^b %; in series [4] (1.9 mg/L mean measured) it was 82 (3.3)^b %. Also, in [4] (Lampsilis siliquoidea, in vivo, 48 h), the NOEC was found to be 1.9 mg/L^b. The “ChV (geometric mean of NOEC and LOEC)” value in series [4] (viability, acute 48 h) was 2.8 mg/L. The “ChV, sediment” value with amphipod Hyalella azteca (setting [12]) came out at 53 mg/kg; in the series with mayfly Hexagenia spp. [6], 21 mg/kg. For the same molecule, the “LOEC, overlying water” value with amphipod Hyalella azteca (setting [12]) is listed as 0.5 mg/L; with mayfly Hexagenia spp. [6] it was 0.25 mg/L. Also, the “LOEC, sediment” value in the series with amphipod Hyalella azteca (setting [12]) came to 76 mg/kg; in the series with mayfly Hexagenia spp. [6], 37 mg/kg. The “NOEC, overlying water” value in the series with amphipod Hyalella azteca (setting [12]) was determined as 0.25 mg/L; with mayfly Hexagenia spp. [6], 0.04 mg/L. Further, the “Females (percent of surviving amphipods), mean (SEM)” value in the series on amphipod Hyalella azteca (melengestrol acetate 76 mg/kg dw sediment (0.5 mg/L water), measured, 42-day, n = 10) was 60 (4.5) %. The “NOEC, sediment” value with amphipod Hyalella azteca (survival, growth, 42-day, dry weight sediment, measured) turned out to be 37 mg/kg; in the series with mayfly Hexagenia spp. [6], 12 mg/kg. Besides, the “Burial (%), mean (SEM)” value in series [5] (setting [13]) is on record as 85 (4.8) %; in [5] (setting [14]), 97 (7.0) %; in [5] (setting [15]), 90(5.8) %; in [5] (setting [16]) it was 90 (0.0) %; in series [5] (1000 mg/kg dry weight nominal, n = 3) it was 68 (5.8) %. Further, the “Survival (%), mean (SEM)” value in series [5] (setting [13]) is reported as 93 (3.3) %; in series [5] (setting [14]), 97 (3.3) %; in [5] (setting [15]), 97 (3.3) %; in series [5] (setting [16]), 100 (0.0) %; in [5] (1000 mg/kg dry weight nominal, n = 3, 1000 mg/kg), 77 (8.8) %; in the series with amphipods H. azteca (0.1 mg/kg dry weight nominal) it was 100 (3.8) %. The “Survival (%), mean (SEM)” value is 100 (0.0) % in the series with amphipods H. azteca (1 mg/kg dry weight nominal); 95 (2.2) % in the series on amphipods H. azteca (10 mg/kg dry weight nominal); 95 (2.2) % in the series on amphipods H. azteca (100 mg/kg dry weight nominal); 0^a (0.0) % with amphipods H. azteca (1000 mg/kg dry weight nominal); 100 (0.0) % with mayflies Hexagenia spp. (0.1 mg/kg dry weight nominal); 97 (3.3) % in the series on mayflies Hexagenia spp. (1 mg/kg dry weight nominal). Moreover, the figures for the “Survival (%), mean (SEM)” value in the series with mayflies Hexagenia spp. (10 mg/kg dry weight nominal), with mayflies Hexagenia spp. (100 mg/kg dry weight nominal) and in the series on mayflies Hexagenia spp. (1000 mg/kg dry weight nominal) were 100 (0.0) %, 100 (0.0) % and 37^a (8.8) %, respectively. Also, the “Growth, mean (SEM)” value in the series on amphipods H. azteca (0.1 mg/kg dry weight nominal) is 1.0 (0.09) mg wet weight; in the series on amphipods H. azteca (1 mg/kg dry weight nominal), 1.0 (0.07) mg wet weight; in the series on amphipods H. azteca (10 mg/kg dry weight nominal) it was 1.1 (0.10) mg wet weight; with amphipods H. azteca (100 mg/kg dry weight nominal) it was 0.7 (0.15) mg wet weight; with mayflies Hexagenia spp. (0.1 mg/kg dry weight nominal) it was 33 (0.2) mg wet weight; in the series with mayflies Hexagenia spp. (1 mg/kg dry weight nominal), 30 (0.9) mg wet weight. In addition, the “Growth, mean (SEM)” value with mayflies Hexagenia spp. (10 mg/kg dry weight nominal) was 31 (1.2) mg wet weight; with mayflies Hexagenia spp. (100 mg/kg dry weight nominal), 20^a (0.7) mg wet weight; with mayflies Hexagenia spp. (1000 mg/kg dry weight nominal), 7.4^a (0.24) mg wet weight. In addition, the “ChV, overlying water” value with mayfly Hexagenia spp. [6] is recorded as 0.1 mg/L. Further, the Toxicity entry in series [7] is “No toxicity was observed”. In [8], the “Larval size (length and weight) vs controls” value is given as “significantly smaller”. For the same molecule, the “Mortality or developmental effects” value in series [8] was “no mortality or developmental effects were observed”. Also, the Direct photolysis half-life result in series [9] was “approximately 45 min”. Besides, the “Survival (percent of initial animals added), mean (SEM)” value is listed as 95 (2.2) % in the series with mayfly Hexagenia spp. [10] (melengestrol acetate 1 mg/kg dw sediment (0.002 mg/L water)), 90 (2.6) % in the series with mayfly Hexagenia spp. [10] (melengestrol acetate 12 mg/kg dw sediment (0.04 mg/L water)), 93 (2.1) % in the series with mayfly Hexagenia spp. [10] (melengestrol acetate 37 mg/kg dw sediment (0.25 mg/L water)) and 92 (4.0) % in the series with mayfly Hexagenia spp. [10] (melengestrol acetate 76 mg/kg dw sediment (0.5 mg/L water)).
As to `CC(C)C(=O)Nc1ccc([N+](=O)[O-])c(C(F)(F)F)c1` [flutamide], the “Effect on maturation and embryonic development” value with D. magna [11] (concentrations up to 1 mg/L) was “delayed the maturation of female D. magna and inhibited the embryonic development of neonates”. Also, in the series with D. magna [11], the “48-h EC50 for immobilization” value was 2.7 µg/mL.

Source of the values: article PMC7679302 (Environmental Science and Pollution Research International, 2020).
